pIC50: −log10 of the molar value. Read-outs that look alike come from different tables or passages of the source.
Legend:
[1] = target: IKKε (Homo sapiens (Human), UniProt Q14164); test: IKKε TR-FRET enzymatic assay; assay type: biochemical; settings: read-out: IKKe IC50
[2] = target: hJAK2 (Homo sapiens (Human), UniProt O60674); test: hJAK2 LANCE TR-FRET enzymatic assay; assay type: biochemical; settings: read-out: JAK2 IC50
[3] = target: TBK1 (Homo sapiens (Human), UniProt Q9UHD2); test: TBK1 TR-FRET enzymatic assay;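 note: phosphorylation of a biotinylated Ser/Thr peptide by purified full-length recombinant TBK1, read by TR-FRET after 240 min at 25 °C, IC50 is the geometric mean of at least four runs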
TBK1, sequence (Q9UHD2 whole entry): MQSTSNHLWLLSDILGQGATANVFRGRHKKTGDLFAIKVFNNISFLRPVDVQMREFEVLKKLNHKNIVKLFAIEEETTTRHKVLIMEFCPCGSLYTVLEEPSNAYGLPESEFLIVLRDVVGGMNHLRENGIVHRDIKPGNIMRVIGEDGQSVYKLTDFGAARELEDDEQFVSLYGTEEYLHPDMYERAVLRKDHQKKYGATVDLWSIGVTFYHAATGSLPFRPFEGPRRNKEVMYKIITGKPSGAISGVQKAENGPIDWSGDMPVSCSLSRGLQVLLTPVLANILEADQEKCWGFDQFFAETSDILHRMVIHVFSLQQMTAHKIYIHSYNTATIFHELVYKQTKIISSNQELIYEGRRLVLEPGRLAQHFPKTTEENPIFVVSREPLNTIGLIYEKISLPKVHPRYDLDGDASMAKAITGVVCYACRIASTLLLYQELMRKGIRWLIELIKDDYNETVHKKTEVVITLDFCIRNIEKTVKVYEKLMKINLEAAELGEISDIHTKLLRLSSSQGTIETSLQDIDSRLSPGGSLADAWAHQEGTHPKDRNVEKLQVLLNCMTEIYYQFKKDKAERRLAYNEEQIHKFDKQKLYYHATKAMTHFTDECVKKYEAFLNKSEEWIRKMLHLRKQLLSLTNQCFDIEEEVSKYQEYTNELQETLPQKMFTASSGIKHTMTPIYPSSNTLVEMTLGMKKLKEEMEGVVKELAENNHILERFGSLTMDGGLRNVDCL

IKKε, sequence (Q14164 whole entry): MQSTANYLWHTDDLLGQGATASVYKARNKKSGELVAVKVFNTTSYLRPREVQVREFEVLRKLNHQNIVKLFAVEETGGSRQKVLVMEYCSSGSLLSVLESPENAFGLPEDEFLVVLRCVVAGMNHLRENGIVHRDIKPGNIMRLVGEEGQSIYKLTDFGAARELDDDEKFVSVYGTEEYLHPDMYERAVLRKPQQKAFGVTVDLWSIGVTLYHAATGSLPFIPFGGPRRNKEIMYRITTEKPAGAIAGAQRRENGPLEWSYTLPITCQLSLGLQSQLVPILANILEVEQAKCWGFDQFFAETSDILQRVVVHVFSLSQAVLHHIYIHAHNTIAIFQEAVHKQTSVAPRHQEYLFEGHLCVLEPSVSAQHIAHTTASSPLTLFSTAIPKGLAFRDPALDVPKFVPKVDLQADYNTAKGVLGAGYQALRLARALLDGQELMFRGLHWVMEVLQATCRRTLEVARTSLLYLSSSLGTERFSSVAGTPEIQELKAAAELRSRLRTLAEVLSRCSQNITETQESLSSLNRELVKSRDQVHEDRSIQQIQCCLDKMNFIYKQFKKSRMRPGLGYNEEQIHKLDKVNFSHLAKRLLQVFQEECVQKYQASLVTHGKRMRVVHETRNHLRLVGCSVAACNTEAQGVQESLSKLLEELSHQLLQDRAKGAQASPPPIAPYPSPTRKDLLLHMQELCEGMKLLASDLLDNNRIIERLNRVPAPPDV
hJAK2, sequence (O60674 whole entry): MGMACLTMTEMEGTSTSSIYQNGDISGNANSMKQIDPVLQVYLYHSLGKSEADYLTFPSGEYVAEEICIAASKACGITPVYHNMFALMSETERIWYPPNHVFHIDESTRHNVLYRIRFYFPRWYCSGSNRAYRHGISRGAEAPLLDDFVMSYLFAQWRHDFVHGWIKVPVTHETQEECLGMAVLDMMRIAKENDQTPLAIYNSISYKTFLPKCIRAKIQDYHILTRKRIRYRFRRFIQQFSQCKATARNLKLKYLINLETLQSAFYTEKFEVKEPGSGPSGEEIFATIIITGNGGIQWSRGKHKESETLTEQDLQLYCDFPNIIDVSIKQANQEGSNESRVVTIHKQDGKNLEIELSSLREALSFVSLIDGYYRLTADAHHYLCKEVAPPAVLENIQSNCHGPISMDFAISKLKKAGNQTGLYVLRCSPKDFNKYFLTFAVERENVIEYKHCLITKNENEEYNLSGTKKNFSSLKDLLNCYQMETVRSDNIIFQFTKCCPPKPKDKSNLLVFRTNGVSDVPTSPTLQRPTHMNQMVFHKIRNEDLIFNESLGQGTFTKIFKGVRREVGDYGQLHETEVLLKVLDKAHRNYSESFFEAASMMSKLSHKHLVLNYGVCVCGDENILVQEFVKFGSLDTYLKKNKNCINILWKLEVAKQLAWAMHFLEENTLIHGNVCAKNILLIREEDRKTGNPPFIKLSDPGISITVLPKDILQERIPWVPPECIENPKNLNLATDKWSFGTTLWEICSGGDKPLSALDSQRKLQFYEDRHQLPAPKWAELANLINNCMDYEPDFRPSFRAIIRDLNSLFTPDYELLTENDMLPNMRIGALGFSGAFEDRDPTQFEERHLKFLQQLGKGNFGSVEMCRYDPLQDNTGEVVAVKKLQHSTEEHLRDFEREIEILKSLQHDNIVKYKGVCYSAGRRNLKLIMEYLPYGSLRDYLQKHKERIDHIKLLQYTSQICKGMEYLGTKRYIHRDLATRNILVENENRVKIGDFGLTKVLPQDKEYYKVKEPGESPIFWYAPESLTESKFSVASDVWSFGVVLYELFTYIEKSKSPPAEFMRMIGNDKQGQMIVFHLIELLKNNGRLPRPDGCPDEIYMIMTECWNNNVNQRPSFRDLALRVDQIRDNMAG

| pIC50 [1] | pIC50 [2] | pIC50 [3] | SMILES | pIC50 ([3]; TBK1 IC50) |
| --- | --- | --- | --- | --- |
| 8.52 | 6.93 | 8.22 | CC1(C)CN(C(=O)CO)CC(F)C1Oc1ccc(-c2ncnc(Nc3ccc(N4CCN(C5COC5)CC4)cc3)n2)cc1C#N (stereo not drawn) [Example 177, 2-((5-fluoro-1-(2-hydroxyacetyl)-3,3-dimethylpiperidin-4-yl)oxy)-5-(4-((4-(4-(oxetan-3-yl)piperazin-1-yl)phenyl)amino)-1,3,5-triazin-2-yl)benzonitrile] | – |
| 7.77 | 6.50 | 7.96 | C[C@H](O)C(=O)N1CC(F)C(Oc2ccc(-c3ncnc(Nc4ccc(N5CCN(C6COC6)CC5)cc4)n3)cc2C#N)C(C)(C)C1 (stereo partly drawn) [Example 180, 2-((5-fluoro-1-((S)-2-hydroxypropanoyl)-3,3-dimethylpiperidin-4-yl)oxy)-5-(4-((4-(4-(oxetan-3-yl)piperazin-1-yl)phenyl)amino)-1,3,5-triazin-2-yl)benzonitrile] | – |
| 6.92 | 6.23 | 7.30 | C[C@H](O)C(=O)N1CC[C@H](Oc2ccc(-c3ncnc(Nc4ccc(N5CCN(C6COC6)CC5)cc4)n3)cc2C#N)C[C@H]1C [Example 183, 2-(((2R,4S)-1-((S)-2-hydroxypropanoyl)-2-methylpiperidin-4-yl)oxy)-5-(4-((4-(4-(oxetan-3-yl)piperazin-1-yl)phenyl)amino)-1,3,5-triazin-2-yl)benzonitrile] | – |
| 6.56 | ≤ 6.00 | 6.99 | C[C@@H]1C[C@@H](Oc2ccc(-c3ncnc(Nc4ccc(N5CCN(C6COC6)CC5)cc4)n3)cc2C#N)CCN1C(=O)[C@@H](C)O [Example 184, 2-(((2R,4S)-1-((R)-2-hydroxypropanoyl)-2-methylpiperidin-4-yl)oxy)-5-(4-((4-(4-(oxetan-3-yl)piperazin-1-yl)phenyl)amino)-1,3,5-triazin-2-yl)benzonitrile] | – |
| 6.72 | ≤ 6.00 | 7.03 | C[C@H](O)C(=O)N1CC[C@@H](Oc2ccc(-c3ncnc(Nc4ccc(N5CCN(C6COC6)CC5)cc4)n3)cc2C#N)C[C@H]1C [Example 185, 2-(((2R,4R)-1-((S)-2-hydroxypropanoyl)-2-methylpiperidin-4-yl)oxy)-5-(4-((4-(4-(oxetan-3-yl)piperazin-1-yl)phenyl)amino)-1,3,5-triazin-2-yl)benzonitrile] | – |
| 6.51 | ≤ 6.00 | 6.89 | C[C@@H]1C[C@H](Oc2ccc(-c3ncnc(Nc4ccc(N5CCN(C6COC6)CC5)cc4)n3)cc2C#N)CCN1C(=O)[C@@H](C)O [Example 186, 2-(((2R,4R)-1-((R)-2-hydroxypropanoyl)-2-methylpiperidin-4-yl)oxy)-5-(4-((4-(4-(oxetan-3-yl)piperazin-1-yl)phenyl)amino)-1,3,5-triazin-2-yl)benzonitrile] | – |
| 7.32 | ≤ 6.00 | 7.85 | N#Cc1cc(-c2ncnc(Nc3ccc(N4CCN(C5COC5)CC4)cc3)n2)ccc1O[C@@H]1CN(C(=O)CO)C[C@H]1F [Example 193, 2-(((3R,4R)-4-fluoro-1-(2-hydroxyacetyl)pyrrolidin-3-yl)oxy)-5-(4-((4-(4-(oxetan-3-yl)piperazin-1-yl)phenyl)amino)-1,3,5-triazin-2-yl)benzonitrile] | – |
| 7.17 | 6.58 | 8.00 | C[C@H](O)C(=O)N1CC(Oc2ccc(-c3ncnc(Nc4ccc(N5CCN(C6COC6)CC5)cc4)n3)cc2C#N)C(F)(F)C1 (stereo partly drawn) [Example 198, 2-((4,4-difluoro-1-((S)-2-hydroxypropanoyl)pyrrolidin-3-yl)oxy)-5-(4-((4-(4-(oxetan-3-yl)piperazin-1-yl)phenyl)amino)-1,3,5-triazin-2-yl)benzonitrile] | – |

The remaining lines, values behind:

| SMILES | pIC50 [1] | pIC50 [2] | pIC50 [3] | pIC50 ([3]; TBK1 IC50) |
| --- | --- | --- | --- | --- |
| C[C@H]1C[C@@H](Oc2ccc(-c3ncnc(Nc4ccc(N5CCN(C6COC6)CC5)cc4)n3)cc2C#N)CCN1C(=O)CO [Example 169, 2-(((2S,4S)-1-(2-hydroxyacetyl)-2-methylpiperidin-4-yl)oxy)-5-(4-((4-(4-(oxetan-3-yl)piperazin-1-yl)phenyl)amino)-1,3,5-triazin-2-yl)benzonitrile] | 8.30 | 6.64 | 8.70 | – |
| CC1CN(C(=O)CO)CCC1Oc1ccc(-c2ncnc(Nc3ccc(N4CCN(C5COC5)CC4)cc3)n2)cc1C#N (stereo not drawn) [Example 170, 2-((1-(2-hydroxyacetyl)-3-methylpiperidin-4-yl)oxy)-5-(4-((4-(4-(oxetan-3-yl)piperazin-1-yl)phenyl)amino)-1,3,5-triazin-2-yl)benzonitrile] | 8.10 | 6.59 | 8.52 | – |
| CC1CC(Oc2ccc(-c3ncnc(Nc4ccc(N5CCN(C6COC6)CC5)cc4)n3)cc2C#N)CC(C)N1C(=O)CO (stereo not drawn) [Example 171, 2-((1-(2-hydroxyacetyl)-2,6-dimethylpiperidin-4-yl)oxy)-5-(4-((4-(4-(oxetan-3-yl)piperazin-1-yl)phenyl)amino)-1,3,5-triazin-2-yl)benzonitrile] | 8.05 | 6.33 | 8.70 | – |
| N#Cc1cc(-c2ncnc(Nc3ccc(N4CCN(C5COC5)CC4)cc3)n2)ccc1OC1C2CC1CN(C(=O)CO)C2 (stereo not drawn) [Example 172, 2-((3-(2-hydroxyacetyl)-3-azabicyclo[3.1.1]heptan-6-yl)oxy)-5-(4-((4-(4-(oxetan-3-yl)piperazin-1-yl)phenyl)amino)-1,3,5-triazin-2-yl)benzonitrile] | 6.17 | ≤ 6.00 | 7.14 | – |
| N#Cc1cc(-c2ncnc(Nc3ccc(N4CCN(C5COC5)CC4)cc3)n2)ccc1OC1CC2CCC(C1)N2C(=O)CO (stereo not drawn) [Example 173, 2-((8-(2-hydroxyacetyl)-8-azabicyclo[3.2.1]octan-3-yl)oxy)-5-(4-((4-(4-(oxetan-3-yl)piperazin-1-yl)phenyl)amino)-1,3,5-triazin-2-yl)benzonitrile] | 6.66 | 6.58 | – | 7.04 |
| C[C@H](O)C(=O)N1CC[C@H](Oc2ccc(-c3ncnc(Nc4ccc(N5CCN(C6COC6)CC5)cc4)n3)cc2C#N)C[C@@H]1C [Example 181, 2-(((2S,4S)-1-((S)-2-hydroxypropanoyl)-2-methylpiperidin-4-yl)oxy)-5-(4-((4-(4-(oxetan-3-yl)piperazin-1-yl)phenyl)amino)-1,3,5-triazin-2-yl)benzonitrile] | 7.70 | 6.36 | 8.00 | – |
| C[C@@H](O)C(=O)N1CC[C@H](Oc2ccc(-c3ncnc(Nc4ccc(N5CCN(C6COC6)CC5)cc4)n3)cc2C#N)C[C@@H]1C [Example 182, 2-(((2S,4S)-1-((R)-2-hydroxypropanoyl)-2-methylpiperidin-4-yl)oxy)-5-(4-((4-(4-(oxetan-3-yl)piperazin-1-yl)phenyl)amino)-1,3,5-triazin-2-yl)benzonitrile] | 7.02 | 6.31 | 7.49 | – |
| C[C@H]1C[C@@H](Oc2ccc(-c3ncnc(Nc4ccc(N5CCN(C6COC6)CC5)cc4)n3)cc2C#N)CCN1C(=O)CC#N [Example 187, 2-(((2S,4S)-1-(2-cyanoacetyl)-2-methylpiperidin-4-yl)oxy)-5-(4-((4-(4-(oxetan-3-yl)piperazin-1-yl)phenyl)amino)-1,3,5-triazin-2-yl)benzonitrile] | 7.89 | 6.74 | 8.30 | – |
| C[C@H]1C[C@@H](Oc2ccc(-c3ncnc(Nc4ccc(N5CCN(C6COC6)CC5)cc4)n3)cc2C#N)CCN1C(=O)c1cnn[nH]1 [Example 188, 2-(((2S,4S)-2-methyl-1-(1H-1,2,3-triazole-5-carbonyl)piperidin-4-yl)oxy)-5-(4-((4-(4-(oxetan-3-yl)piperazin-1-yl)phenyl)amino)-1,3,5-triazin-2-yl)benzonitrile] | 8.30 | 6.65 | 8.30 | – |
| N#Cc1cc(-c2ncnc(Nc3ccc(N4CCN(C5COC5)CC4)cc3)n2)ccc1OC1CCN(C(=O)c2ccc[nH]2)CC1 [Example 190, 2-((1-(1H-pyrrole-2-carbonyl)piperidin-4-yl)oxy)-5-(4-((4-(4-(oxetan-3-yl)piperazin-1-yl)phenyl)amino)-1,3,5-triazin-2-yl)benzonitrile] | 7.82 | ≤ 6.00 | 8.52 | – |
| N#Cc1cc(-c2ncnc(Nc3ccc(N4CCN(C5COC5)CC4)cc3)n2)ccc1OC1CCN(C(=O)c2cc[nH]c2)CC1 [Example 191, 2-((1-(1H-pyrrole-3-carbonyl)piperidin-4-yl)oxy)-5-(4-((4-(4-(oxetan-3-yl)piperazin-1-yl)phenyl)amino)-1,3,5-triazin-2-yl)benzonitrile] | 6.65 | ≤ 6.00 | 7.17 | – |
| C[C@H]1CN(C(=O)CO)C[C@@H]1Oc1ccc(-c2ncnc(Nc3ccc(N4CCN(C5COC5)CC4)cc3)n2)cc1C#N [Example 192, 2-(((3R,4S)-1-(2-hydroxyacetyl)-4-methylpyrrolidin-3-yl)oxy)-5-(4-((4-(4-(oxetan-3-yl)piperazin-1-yl)phenyl)amino)-1,3,5-triazin-2-yl)benzonitrile] | 7.52 | ≤ 6.00 | 8.10 | – |
| N#Cc1cc(-c2ncnc(Nc3ccc(N4CCN(C5COC5)CC4)cc3)n2)ccc1OC1CNCC1(F)F (stereo not drawn) [Example 194, 2-((4,4-difluoropyrrolidin-3-yl)oxy)-5-(4-((4-(4-(oxetan-3-yl)piperazin-1-yl)phenyl)amino)-1,3,5-triazin-2-yl)benzonitrile] | 7.54 | 6.51 | 8.22 | – |
| CS(=O)(=O)N1CC[C@@H](Oc2ccc(-c3ncnc(Nc4ccc(N5CCN(C6COC6)CC5)cc4)n3)cc2C#N)C1 [Example 197, (R)-2-((1-(methylsulfonyl)pyrrolidin-3-yl)oxy)-5-(4-((4-(4-(oxetan-3-yl)piperazin-1-yl)phenyl)amino)-1,3,5-triazin-2-yl)benzonitrile] | 7.10 | 6.76 | 7.59 | – |
| N#Cc1cc(-c2ncnc(Nc3ccc(N4CCN(C5COC5)CC4)cc3)n2)ccc1O[C@@H]1CCC(=O)NC1 [Example 199, (R)-5-(4-((4-(4-(oxetan-3-yl)piperazin-1-yl)phenyl)amino)-1,3,5-triazin-2-yl)-2-((6-oxopiperidin-3-yl)oxy)benzonitrile] | 8.22 | 6.70 | 8.40 | – |

Reference: patent US10040781B2, “Tank-binding kinase inhibitor compounds” (Gilead Sciences, Inc., priority 2014, dated 2018)
